55 compounds from ChEMBL document CHEMBL1201862, “PubChem BioAssay data set” (2004) can be followed below.

Some test systems named below: LXFL 529; SNB-78; DMS-273; DLD-1; KM-20L2; XF498; BT-549; HOP-18; RXF 631.
Common to all, as to assay: DTP human tumour cell line panel, 48 h

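All cell lines were grown in 96-well plates and treated with compound for 48 hours. At the GI50, growth is halved.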 Active and inactive are the calls of the source. Rule as the data show it: active = GI50 up to about 1.1 µM and inactive = higher. Starred links: 1 amine or outer side, 2 acyl side, 3 side chain; linkers in the order of their positions; H or OH if unused. Non-standard residues stand in square brackets, D forms with d. Residues, ends and D or L forms follow the SMILES beside them. X41 = CSCCCC(N[*:1])C(=O)[*:2]

In general, GI50 refers to the concentration that inhibits growth by half. For `O=C(O[C@H]1[C@@H]2C=CO[C@@H](OC3OC(CO)C(O)C(O)C3O)[C@@H]2[C@@]2(CO)O[C@@H]12)c1ccc(O)c(O)c1` (some centres not stated), the GI50 in the assay with LXFL 529 is > 100 µM (inactive); with SNB-78, > 100 µM (inactive); in the assay with DMS-273 it was > 100 µM (inactive); with DLD-1, > 100 µM (inactive); in the assay on KM-20L2, > 100 µM (inactive); in the assay with XF498, 41.5 µM (inactive).

For `CC(=O)CCNc1ccc(-c2cc(-c3ccc(N(C)C)cc3)nc3ccc4ccccc4c23)cc1`, the GI50 in the assay on BT-549 is 35.9 µM (inactive).

Consider `COc1ccc(/N=C2\C(=N/c3ccc(OC)cc3)N(S(=O)(=O)c3ccccc3)C(=S)N2c2ccc(OC)cc2)cc1`, for which the GI50 in the assay on BT-549 was > 100 µM (inactive).

For `C=C(C)[C@H]1C2=CC(C(=O)OC)=C(C[C@H](C(=C)C)[C@@H](O)[C@@H](O)C3=C[C@H]1OC3=O)O2`, in the assay with BT-549, the GI50 is > 100 µM (inactive).

Take `Cc1ccc(C(=O)/C=C/c2ccccc2Cl)cc1`: the GI50 with LXFL 529 was 15.3 µM (inactive); in the assay with SNB-78 it was 21.7 µM (inactive); in the assay with DMS-273, 15.2 µM (inactive); in the assay on DLD-1, 19.8 µM (inactive); in the assay with HOP-18, 26.8 µM (inactive); with KM-20L2, 16.7 µM (inactive).

For `COc1cc(CNC2c3cc4c(cc3C(c3cc(OC)c(OC)c(OC)c3)[C@H]3C(=O)OCC23)OCO4)cc(OC)c1OC` (some centres not stated), the GI50 is 0.356 µM (active) in the assay on LXFL 529; 0.237 µM (active) in the assay with DMS-273; 0.41 µM (active) in the assay with DLD-1; 55.5 µM (inactive) in the assay on HOP-18; 0.197 µM (active) in the assay with KM-20L2; 0.364 µM (active) with XF498.

On to `COCCCN1C(=O)C2c3[nH]c4ccccc4c3C3CCC(C(C)(C)C)CC3C2C1=O` (configuration not stated), for which the GI50 in the assay on BT-549 was 20.5 µM (inactive).

Take `O=C1NC(N2CCOCC2)=N/C1=C\c1ccc(Cl)cc1`: the GI50 in the assay with BT-549 is > 100 µM (inactive).

`Cc1nnc(-n2c(O)cc(=O)n(-c3ccccc3)c2=S)nc1/C=C/c1ccc(N(C)C)cc1`: the GI50 with BT-549 is 20.9 µM (inactive).

As for `Cn1c2ccccc2n2c3ncccc3c(=S)c(C#N)c12`, the GI50 in the assay on BT-549 was > 100 µM (inactive).

Consider `NC1=NC(c2ccc(Cl)cc2)N(c2ccc(S(=O)(=O)Nc3ncccn3)cc2)C(N)=N1` (configuration not stated), for which, in the assay on BT-549, the GI50 is > 100 µM (inactive).

On to `CC(=O)OC1C=CC2CCN3C(=O)c4cc5c(cc4[C@H]1C23)OCO5` (some centres not stated), for which the GI50 with LXFL 529, in the assay on SNB-78, with DMS-273, with DLD-1 and in the assay on KM-20L2 was > 100 µM (inactive) throughout.

Consider `COC(=O)[C@H](C)N1C(=O)N[C@@H](C(C)C)C1=O`, for which the GI50 in the assay on BT-549 is > 100 µM (inactive).

On to `COC12CCCN1c1ccn(Cc3ccccc3)c(=O)c1C2=O` (configuration not stated), for which, in the assay with BT-549, the GI50 was > 100 µM (inactive).

In the case of `Cc1ccc(N/N=C2\C3=C(CCC(C)(C)O3)C(=O)c3ccccc32)cc1`, the GI50 in the assay with BT-549 was 26.1 µM (inactive).

For `CN1CCN(Cc2ccccc2)CC1CC#N` (configuration not stated), the GI50 in the assay with BT-549 was > 100 µM (inactive).

For `O=C(Cc1cc(=O)oc2cc(O)ccc12)N/N=C/c1ccc(N(CCCl)CCCl)cc1`, in the assay with BT-549, the GI50 was 16.4 µM (inactive).

`Nc1ccc2nc(-c3ccccn3)c(-c3ccccn3)nc2c1`: in the assay on BT-549, the GI50 was > 100 µM (inactive).

Regarding `CC(C)=CCC[C@@H](C)C1=C(O)C(=O)C(C)=C(Nc2ccccc2I)C1=O`, the GI50 in the assay with BT-549 is 23.6 µM (inactive).

As for `S=C(NCc1ccccc1)N/N=C/c1ccccn1`, in the assay with BT-549, the GI50 was 8.02 µM (inactive).

For the compound `Cc1ccc2c(c1)CN(C(=O)CCC(=O)OCc1ccccc1)c1ccc(C)cc1CN2C(=O)CCC(=O)OCc1ccccc1`, the GI50 in the assay on LXFL 529, in the assay on SNB-78, in the assay with DMS-273, in the assay on DLD-1, in the assay with BT-549 and in the assay on HOP-18 was > 100 µM (inactive) in each case. Besides, the GI50 with KM-20L2 is > 100 µM (inactive).

In the case of `COc1cc(Nc2ccc3c(c2)CCC3)nc(OC)n1`, the GI50 with BT-549 is 33.3 µM (inactive).

Take `COC(=O)/C=C1\C(=O)Nc2ccc(Br)cc21`: the GI50 with BT-549 was 1.69 µM (inactive).

For `O=C1c2cn[nH]c2N=C(Nc2ccccc2)C1/N=C/c1ccc([N+](=O)[O-])cc1` (configuration not stated), in the assay with BT-549, the GI50 is > 10 µM (inactive).

Consider `CCC(=O)OCc1ccc2oc(=O)c(C(=O)Oc3cncc(Cl)c3)cc2c1`, for which the GI50 with BT-549 is > 100 µM (inactive).

For the compound `CC1CCN(C(C)C)P(=S)(Cc2ccccc2)O1` (configuration not stated), the GI50 in the assay on BT-549 is 28.1 µM (inactive).

For the compound `COc1cc(C=O)c(-c2cc(OC)c(OC)cc2C=O)cc1OC`, the GI50 was > 100 µM (inactive) in the assay on LXFL 529; > 100 µM (inactive) in the assay with SNB-78; > 100 µM (inactive) in the assay with DMS-273; 65 µM (inactive) in the assay on DLD-1; > 100 µM (inactive) with HOP-18; > 100 µM (inactive) with KM-20L2.

In the case of `CCc1ccccc1-n1c2nc(=O)n(C)c(=O)c-2nc2ccccc21`, the GI50 was 11.1 µM (inactive) with LXFL 529; 16.9 µM (inactive) in the assay with SNB-78; 8.71 µM (inactive) with DMS-273; 16.3 µM (inactive) in the assay on DLD-1; 11.9 µM (inactive) in the assay on HOP-18; 4.08 µM (inactive) in the assay with KM-20L2. The GI50 in the assay on XF498 was 10.3 µM (inactive).

Regarding `CC(=O)OCC1OC(n2c(=O)n(-c3ccccc3)c(=O)c3ccccc32)C(OC(C)=O)C(OC(C)=O)C1OC(C)=O` (configuration not stated), the GI50 in the assay with LXFL 529, in the assay on SNB-78, in the assay on DMS-273, with DLD-1, in the assay on HOP-18 and with RXF 631 was > 100 µM (inactive) in each case. Besides, the GI50 with KM-20L2 is > 100 µM (inactive).

`CC1(C)CC(C2CC(C)(C)CC(C)(C)[C@H]2O)[C@@H](O)C(C)(C)C1` (some centres not stated): the GI50 in the assay with LXFL 529, in the assay on DMS-273, in the assay with KM-20L2 and in the assay on XF498 was > 100 µM (inactive) throughout.

In the case of `COc1ccc(C(=O)C(CC2C(=O)CC(C)(C)C(C(=O)C(=O)Nc3c(C)cccc3C)C2=O)c2ccc(OC)cc2)cc1` (configuration not stated), the GI50 in the assay on BT-549 was > 100 µM (inactive).

Consider `CC(C)(C)Cc1cc(O)ccc1O`, for which the GI50 in the assay with BT-549 was 93.3 µM (inactive).

Regarding `Cc1ccc2[nH]c(=O)c(-c3cnc(O)nn3)c(O)c2c1`, the GI50 with BT-549 was 80.2 µM (inactive).

As to `Oc1c(CN2CCN(c3ccccc3)CC2)cc(Br)c2cccnc12`, in the assay on BT-549, the GI50 was 7.52 µM (inactive).

Regarding `C[C@]12CC[C@H]3[C@@H](CC=C4C[C@@H](N5CCCC5)CC[C@@]43C)[C@@H]1C/C(=C\c1ccc([N+](=O)[O-])cc1)[C@@H]2O`, the GI50 with BT-549 was 13.5 µM (inactive).

For `O=c1c2ccccc2[nH]c2ccc3c(Cl)n[nH]c3c12`, the GI50 in the assay on LXFL 529 is 51.6 µM (inactive); in the assay on SNB-78, 55.3 µM (inactive); with DMS-273, 40.3 µM (inactive); in the assay with DLD-1, 19.5 µM (inactive); in the assay on HOP-18, 33.2 µM (inactive); in the assay on RXF 631 it was 37.3 µM (inactive). Also, in the assay on KM-20L2, the GI50 is 51.9 µM (inactive).

On to `CC(=O)NNc1nc(C)c(C(=O)/C=C/c2ccc(N(C)C)cc2)s1`, for which the GI50 in the assay with SNB-78, in the assay with DMS-273, with DLD-1, in the assay with HOP-18, with RXF 631 and in the assay on KM-20L2 was > 100 µM (inactive) throughout.

Take `CN(C)CCn1nc(N)c2nc3cc(C(F)(F)F)ccc3nc21`: in the assay with BT-549, the GI50 is 99.8 µM (inactive).

As to `CSCCCC(NC(=O)CNC(=O)C1CCCN1C(=O)C(Cc1ccc(O)cc1)NC(=O)C(Cc1ccccc1)NC(=O)C(CCCNC(=N)N)NC(=O)C(CC(=O)O)NC(=O)C1CCCN1C(=O)C(CC(=O)O)NC(=O)C1CCCN1C(=O)C1CCCN1C(=O)CN)C(N)=O` (configuration not stated) (H-GPPDPDRFYPG[X41]-NH2; configuration not given here), in the assay with BT-549, the GI50 was > 50 µM (inactive).

`NS(=O)(=O)c1nn2c(Br)c(-c3ccccc3)nc2s1`: the GI50 in the assay with BT-549 was 2.97 µM (inactive).

`CN(C)c1ccc(/C=N/NC2=N/C(=C\c3ccco3)C(=O)N2)cc1`: the GI50 in the assay on BT-549 was > 100 µM (inactive).

For `Cc1cc2[nH]c3c(C#N)c(-c4ccccc4)c(/C=N/c4ccc(F)cc4)c(=O)n3c2cc1C`, the GI50 with BT-549 is > 100 µM (inactive).

As to `NNC(=O)CS(=O)(=O)Nc1ncccn1`, in the assay on BT-549, the GI50 is > 100 µM (inactive).

As for `O=C1NC(=O)C(c2c[nH]c3cc(Br)ccc23)=C1c1cnc[nH]1`, the GI50 in the assay with BT-549 is 13.5 µM (inactive).

Consider `O=C(OCCC12CC3CC(CC(C3)C1)C2)c1ccc(NCc2cc(O)ccc2O)cc1`, for which the GI50 with BT-549 is 0.241 µM (active).

Take `Cc1ccc2c(c1)C(=O)C(Cc1ccccc1C(=O)O)C2` (configuration not stated): the GI50 with BT-549 was > 100 µM (inactive).

Regarding `Cc1nc(Nc2ccccc2)sc1C(=O)CC(=O)C(=O)Nc1c(C(C)C)cccc1C(C)C`, the GI50 is 60 µM (inactive) in the assay with LXFL 529; > 100 µM (inactive) in the assay on SNB-78; > 100 µM (inactive) in the assay with DMS-273; 87.9 µM (inactive) with DLD-1; > 100 µM (inactive) in the assay on HOP-18; 85.1 µM (inactive) in the assay with KM-20L2. For the same compound, in the assay with XF498, the GI50 is > 100 µM (inactive).

As to `O/N=C1/C(=C/c2ccc(Br)cc2)CCCC1C(NO)c1ccc(Br)cc1` (configuration not stated), the GI50 is 14.8 µM (inactive) with LXFL 529; 13.4 µM (inactive) in the assay with SNB-78; 13.1 µM (inactive) in the assay with DMS-273; 18.9 µM (inactive) in the assay with HOP-18; 14.8 µM (inactive) in the assay with RXF 631; 17.3 µM (inactive) in the assay on KM-20L2.

As to `Cc1ccc(C2=C(c3ccccc3)C(O)(c3ccc(C)cc3)C(c3ccccc3)=C2c2ccc(C)cc2)cc1`, the GI50 in the assay with LXFL 529 was 60.1 µM (inactive); with SNB-78, > 100 µM (inactive); in the assay on DMS-273, > 100 µM (inactive); in the assay with DLD-1, > 100 µM (inactive); in the assay on KM-20L2 it was > 100 µM (inactive); in the assay with XF498, > 100 µM (inactive).

`Cc1oc2nc1C(=O)NCc1nc(cs1)C(=O)N[C@H](C(C)C)c1nc(cs1)C(=O)N[C@H]2C`: the GI50 with BT-549 is > 100 µM (inactive).

As to `COC1C(=O)N(SC)C1c1ccccc1Cl` (configuration not stated), in the assay with BT-549, the GI50 was 23.4 µM (inactive).

With `Cc1sc2nc(-c3ccc(Cl)c([N+](=O)[O-])c3)c(/C=N/NC(=N)N)n2c1C`, the GI50 with BT-549 was 1.7 µM (inactive).

In the case of `CCCCCC(C)C[C@H]1CO[C@H](c2ccc[nH]2)N[C@H]1C(=O)OC` (some centres not stated), in the assay with BT-549, the GI50 was > 100 µM (inactive).

As for `CC1Cn2c(nc3ccccc32)NC1=O` (configuration not stated), the GI50 in the assay on BT-549 is > 100 µM (inactive).

`O=C(/C=C/c1ccccc1)Oc1ccc(C(=O)/C=C/c2ccccc2)cc1`: the GI50 with BT-549 was 6.49 µM (inactive).
